The values that follow come from ChEMBL document CHEMBL6078678, “Unveiling the Antimycobacterial Potential of Novel 4-Alkoxyquinolines: Insights into Selectivity, Mechanism of Action, and In Vivo Exposure” (J Med Chem, 2024).

A value given as a limit tells only on which side of the number the result lay.

For one test, the system named is Mycobacterium tuberculosis. Nature of the test: microbe, parasite or virus in culture.
For the molecule `Cc1cc(OCCCNc2ccc(Br)cc2)c2cc(Cl)ccc2n1`, the MIC was less than 0.06 µM.
Molecule `COc1ccc2nc(C)cc(OCCCNc3ccc(Br)cc3)c2c1` registered an MIC of less than 0.05 µM.
`Cc1cc(OCCCNc2ccc(Cl)cc2)c2cc(Br)ccc2n1` gave an MIC of less than 0.05 µM.
`CCc1ccc(NCCCOc2cc(C)nc3ccc(Cl)cc23)cc1` yielded an MIC of less than 0.06 µM.
Regarding `COc1ccc2nc(C)cc(OCCCNc3ccc(I)cc3)c2c1`, the MIC is less than 0.05 µM.
`CCc1ccc(NCCCOc2cc(CC)nc3ccc(Br)cc23)cc1` came in with an MIC of less than 0.05 µM.
As to `CCc1ccc(NCCCOc2cc(C)nc3ccc(Br)cc23)cc1`, the MIC was less than 0.05 µM.

Another test deals with Mycobacterium tuberculosis. Kind of test: microbe, parasite or virus in culture. This is another data set of the same source.
For the molecule `Cc1cc(OCCCNc2ccc(Br)cc2)c2cc(Cl)ccc2n1`, the MIC is less than 0.06 µM.
The same measure, in the same setting: to `COc1ccc2nc(C)cc(OCCCNc3ccc(Br)cc3)c2c1` belongs less than 0.05 µM.
As for `Cc1cc(OCCCNc2ccc(Cl)cc2)c2cc(Br)ccc2n1`, the MIC was less than 0.05 µM.
Consider `CCc1ccc(NCCCOc2cc(C)nc3ccc(Cl)cc23)cc1`, for which the MIC is less than 0.06 µM.
`COc1ccc2nc(C)cc(OCCCNc3ccc(I)cc3)c2c1` showed an MIC of less than 0.05 µM.
In the case of `CCc1ccc(NCCCOc2cc(CC)nc3ccc(Br)cc23)cc1`, the MIC is less than 0.05 µM.
`CCc1ccc(NCCCOc2cc(C)nc3ccc(Br)cc23)cc1` came in with an MIC of less than 0.05 µM.

Another test relates to Mycobacterium tuberculosis. Kind of test: microbe, parasite or virus in culture. The source holds these as a separate data set.
For the molecule `Cc1cc(OCCCNc2ccc(Br)cc2)c2cc(Cl)ccc2n1`, the MIC was less than 0.06 µM.
In turn, `COc1ccc2nc(C)cc(OCCCNc3ccc(Br)cc3)c2c1` yielded an MIC of less than 0.05 µM.
Turning to `Cc1cc(OCCCNc2ccc(Cl)cc2)c2cc(Br)ccc2n1`, the MIC is less than 0.05 µM.
`CCc1ccc(NCCCOc2cc(C)nc3ccc(Cl)cc23)cc1` had an MIC of less than 0.06 µM.
`COc1ccc2nc(C)cc(OCCCNc3ccc(I)cc3)c2c1` registered an MIC of less than 0.05 µM.
Molecule `CCc1ccc(NCCCOc2cc(CC)nc3ccc(Br)cc23)cc1` registered an MIC of less than 0.05 µM.
Molecule `CCc1ccc(NCCCOc2cc(C)nc3ccc(Br)cc23)cc1` yielded an MIC of less than 0.05 µM.
